Reference: PubChem BioAssay (NCI)
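48-hour exposure; five concentrations; linearly interpolated endpoints. The concentration for full growth arrest is given as TGI.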

How the values were obtained:
Experiment in all cases: NCI tumour cell line growth inhibition, 48 h
[1] = system: OVCAR-3 ovarian
[2] = system: HCT-15 colon
[3] = system: SN12C renal
[4] = system: HOP-92 NSCLC
[5] = system: SK-MEL-2 melanoma
[6] = system: 786-0 renal
[7] = system: SNB-75 CNS
[8] = system: LOX IMVI melanoma
[9] = system: EKVX NSCLC
[10] = system: TK-10 renal
[11] = system: A549 NSCLC
[12] = system: NCI-H522 lung
[13] = system: SK-MEL-5 melanoma
[14] = system: OVCAR-4 ovarian
[15] = system: U251 CNS
[16] = system: MALME-3M melanoma
[17] = system: MDA-MB-231 breast
[18] = system: MDA-N
[19] = system: SF-268 CNS
[20] = system: A498 renal
[21] = system: SF-295 CNS
[22] = system: SR leukemia
[23] = system: MDA-MB-435
[24] = system: OVCAR-8 ovarian
[25] = system: SK-MEL-28 melanoma
[26] = system: KM12 colon
[27] = system: DU-145 prostate
[28] = system: K-562 leukemia
[29] = system: RPMI-8226 leukemia
[30] = system: MCF7 breast
[31] = system: OVCAR-5 ovarian
[32] = system: UACC-257 melanoma
[33] = system: NCI-H226 lung
[34] = system: T-47D breast
[35] = system: PC-3 prostate
[36] = system: HT29 colon
[37] = system: ACHN renal
[38] = system: UO-31 renal
[39] = system: NCI/ADR-RES ovarian
[40] = system: CCRF-CEM leukemia
[41] = system: RXF 393 renal
[42] = system: HOP-62 NSCLC
[43] = system: SW-620 colon
[44] = system: SK-OV-3 ovarian
[45] = system: M14 melanoma
[46] = system: COLO 205 colon
[47] = system: IGROV1 ovarian
[48] = system: SNB-19 CNS
[49] = system: MOLT-4 leukemia
[50] = system: HCT-116 colon
[51] = system: NCI-H23 lung
[52] = system: HS 578T breast
[53] = system: BT-549 breast
[54] = system: CAKI-1 renal
[55] = system: SF-539 CNS
[56] = system: UACC-62 melanoma
[57] = system: NCI-H460 lung
[58] = system: HCC-2998 colon
[59] = system: HL-60(TB) leukemia

## Nc1ccc(-c2nnc(-c3c(Cl)c(Cl)c(Cl)c(Cl)c3-c3nc4ccc(C(=O)c5ccccc5)cc4[nH]3)o2)cc1
[1]
  TGI: 62.6 µM
[2]
  TGI: 61 µM
[3]
  TGI: 37.7 µM
[4]
  TGI: > 100 µM
[5]
  TGI: 88.3 µM
[6]
  TGI: 36.1 µM
[7]
  TGI: 69.2 µM
[8]
  TGI: > 100 µM
[9]
  TGI: 87.7 µM
[10]
  TGI: 77.6 µM
[11]
  TGI: > 100 µM
[12]
  TGI: 47.9 µM
[13]
  TGI: 26.4 µM
[14]
  TGI: > 100 µM
[15]
  TGI: 47.4 µM
[16]
  TGI: > 100 µM
[17]
  TGI: 55.4 µM
[18]
  TGI: 19 µM
[19]
  TGI: > 100 µM
[20]
  TGI: 63.2 µM
[21]
  TGI: 58.5 µM
[22]
  TGI: 28.2 µM
[23]
  TGI: 75.8 µM
[24]
  TGI: > 100 µM
[25]
  TGI: > 100 µM
[26]
  TGI: > 100 µM
[27]
  TGI: 90.5 µM
[28]
  TGI: 31.6 µM
[29]
  TGI: 31.8 µM
[30]
  TGI: 76.2 µM
[31]
  TGI: 89 µM
[32]
  TGI: > 100 µM
[33]
  TGI: 41.2 µM
[34]
  TGI: 78.5 µM
[35]
  TGI: 49.9 µM
[36]
  TGI: 40.8 µM
[37]
  TGI: > 100 µM
[38]
  TGI: > 100 µM
[39]
  TGI: 41 µM
[40]
  TGI: 70.3 µM
[41]
  TGI: 43.2 µM
[42]
  TGI: 79.9 µM
[43]
  TGI: > 100 µM
[44]
  TGI: 84.2 µM
[45]
  TGI: 34.8 µM
[46]
  TGI: 50.2 µM
[47]
  TGI: > 100 µM
[48]
  TGI: 67.4 µM
[49]
  TGI: 66.7 µM
[50]
  TGI: 56.9 µM
[51]
  TGI: > 100 µM
[52]
  TGI: > 100 µM
[53]
  TGI: > 100 µM
[54]
  TGI: > 100 µM
[55]
  TGI: 29.3 µM

## CNC(=O)Nn1c(SC)nc2ccccc21
[2]
  TGI: > 100 µM
[56]
  TGI: > 100 µM
[3]
  TGI: > 100 µM
[4]
  TGI: > 100 µM
[5]
  TGI: > 100 µM
[6]
  TGI: > 100 µM
[8]
  TGI: > 100 µM
[9]
  TGI: > 100 µM
[10]
  TGI: > 100 µM
[11]
  TGI: > 100 µM
[12]
  TGI: > 100 µM
[13]
  TGI: > 100 µM
[14]
  TGI: > 100 µM
[15]
  TGI: > 100 µM
[16]
  TGI: > 100 µM
[17]
  TGI: > 100 µM
[18]
  TGI: > 100 µM
[19]
  TGI: > 100 µM
[57]
  TGI: > 100 µM
[20]
  TGI: > 100 µM
[21]
  TGI: > 100 µM
[22]
  TGI: > 100 µM
[23]
  TGI: > 100 µM
[24]
  TGI: > 100 µM
[25]
  TGI: > 100 µM
[26]
  TGI: > 100 µM
[27]
  TGI: > 100 µM
[28]
  TGI: > 100 µM
[29]
  TGI: > 100 µM
[30]
  TGI: > 100 µM
[31]
  TGI: > 100 µM
[32]
  TGI: > 100 µM
[33]
  TGI: > 100 µM
[34]
  TGI: > 100 µM
[35]
  TGI: > 100 µM
[36]
  TGI: > 100 µM
[37]
  TGI: > 100 µM
[38]
  TGI: > 100 µM
[39]
  TGI: > 100 µM
[40]
  TGI: > 100 µM
[41]
  TGI: > 100 µM
[58]
  TGI: > 100 µM
[42]
  TGI: > 100 µM
[43]
  TGI: > 100 µM
[44]
  TGI: > 100 µM
[59]
  TGI: > 100 µM
[45]
  TGI: > 100 µM
[46]
  TGI: > 100 µM
[47]
  TGI: > 100 µM
[48]
  TGI: > 100 µM
[49]
  TGI: > 100 µM
[50]
  TGI: > 100 µM
[51]
  TGI: > 100 µM
[52]
  TGI: > 100 µM
[53]
  TGI: > 100 µM
[54]
  TGI: > 100 µM
